# Reference: patent US20240002391A1, “4-ALKOXYPYRROLO[2,1-F][1,2,4]TRIAZINES AND PREPARATION AND USES THEREOF” (BioSplice Therapeutics, Inc., priority 2022, published 2024)
# Target: recombinant DYRK1A kinase (Homo sapiens (Human), UniProt Q13627)
# Test: DYRK1A kinase assay (Ser/Thr 18 peptide Z-lyte FRET)
# Format: biochemical
# Settings: DYRK1A kinase activity, Z-lyte Ser/Thr 18 peptide, 15 μM ATP; method text calls the value IC50; read-out: EC50 (the source's name)
# In short: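 IC50 from non-linear fits of percent phosphorylation, derived from coumarin/fluorescein emission ratio after 1 h protease development. Kinase reaction: 1 h room temperature, 15 μM ATP, 4 μM Ser/Thr peptide 18, 0.25 μg/mL recombinant DYRK1A, duplicate 11-point 1:3 dilutions from 10 μM.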
row,IC50 [nM],Structure (SMILES)
1,0.4,"COc1nc(N[C@H]2CCN(C3(C)COC3)C[C@H]2F)nn2ccc(-c3ccc4nnn(CC(F)F)c4c3)c12 [Compound 764, 5-(1-(2,2-difluoroethyl)-1H-benzo[d][1,2,3]triazol-6-yl)-N-((3R,4S)-3-fluoro-1-(3-methyloxetan-3-yl)piperidin-4-yl)-4-methoxypyrrolo[2,1-f][1,2,4]triazin-2-amine]"
2,1.8,"CCC(=O)N1CC[C@H](Nc2nc(OC)c3c(-c4ccc5nnn(CCF)c5c4)ccn3n2)[C@H](F)C1 [Compound 1143, 1-((3R,4S)-3-Fluoro-4-((5-(1-(2-fluoroethyl)-1H-benzo[d][1,2,3]triazol-6-yl)-4-methoxypyrrolo[2,1-f][1,2,4]triazin-2-yl)amino)piperidin-1-yl)propan-1-one]"
3,2.8,"COc1nc(N[C@@H]2CN(C(C)=O)C[C@@H]2F)nn2ccc(-c3cc(F)c4nc(C)n(CC(F)F)c4c3)c12 [Compound 513, 1-((3R,4S)-3-((5-(1-(2,2-Difluoroethyl)-4-fluoro-2-methyl-1H-benzo[d]imidazol-6-yl)-4-methoxypyrrolo[2,1-f][1,2,4]triazin-2-yl)amino)-4-fluoropyrrolidin-1-yl)ethan-1-one]"
4,7.3,"COc1nc(NC2CCC3(CC2)COC3)nn2ccc(-c3ccc4ncccc4c3)c12 [Compound 326, 4-Methoxy-5-(quinolin-6-yl)-N-(2-oxaspiro[3.5]nonan-7-yl)pyrrolo[2,1-f][1,2,4]triazin-2-amine]"
5,1.2,"COc1nc(N[C@@H]2CN(C3(C#N)COC3)C[C@@H]2F)nn2ccc(-c3ccc4nnn(CC(F)F)c4c3)c12 [Compound 741, 3-((3R,4S)-3-((5-(1-(2,2-Difluoroethyl)-1H-benzo[d][1,2,3]triazol-6-yl)-4-methoxypyrrolo[2,1-f][1,2,4]triazin-2-yl)amino)-4-fluoropyrrolidin-1-yl)oxetane-3-carbonitrile]"
6,2.3,"[2H]C([2H])([2H])Oc1nc(N[C@H]2CC[C@](C)(O)CC2)nn2ccc(-c3ccc4nccnc4c3)c12 [Compound 348, trans-4-((4-(Methoxy-d3)-5-(quinoxalin-6-yl)pyrrolo[2,1-f][1,2,4]triazin-2-yl)amino)-1-methylcyclohexan-1-ol]"
7,2.6,"COc1nc(N[C@H]2CC[C@](C)(O)CC2)nn2ccc(-c3ccc4nc(C)n(CC(F)F)c4c3)c12 [Compound 112, trans-4-((5-(1-(2,2-Difluoroethyl)-2-methyl-1H-benzo[d]imidazol-6-yl)-4-methoxypyrrolo[2,1-f][1,2,4]triazin-2-yl)amino)-1-methylcyclohexan-1-ol]"
8,0.8,"COc1nc(N[C@H]2CCN(C3COC3)C[C@H]2F)nn2ccc(-c3cc(F)c4nnn(CC(F)F)c4c3)c12 [Compound 818, 5-(1-(2,2-Difluoroethyl)-4-fluoro-1H-benzo[d][1,2,3]triazol-6-yl)-N-((3R,4S)-3-fluoro-1-(oxetan-3-yl)piperidin-4-yl)-4-methoxypyrrolo[2,1-f][1,2,4]triazin-2-amine]"
9,1.1,"COc1nc(N[C@H]2CCN(CCO)C[C@H]2F)nn2ccc(-c3cc(F)c4nc(C)n(C(C)C)c4c3)c12 [Compound 542, 2-((3R,4S)-3-Fluoro-4-((5-(4-fluoro-1-isopropyl-2-methyl-1H-benzo[d]imidazol-6-yl)-4-methoxypyrrolo[2,1-f][1,2,4]triazin-2-yl)amino)piperidin-1-yl)ethan-1-ol]"
10,1.4,"COc1nc(N[C@H]2C[C@@](C)(O)C2)nn2ccc(-c3cc(F)c4nc(C)n(CC(F)F)c4c3)c12 [Compound 509, cis-3-((5-(1-(2,2-Difluoroethyl)-4-fluoro-2-methyl-1H-benzo[d]imidazol-6-yl)-4-methoxypyrrolo[2,1-f][1,2,4]triazin-2-yl)amino)-1-methylcyclobutan-1-ol]"
11,1.8,"COc1nc(NC23CC(NC(C)=O)(C2)C3)nn2ccc(-c3ccc4nccnc4c3)c12 [Compound 382, N-(3-((4-Methoxy-5-(quinoxalin-6-yl)pyrrolo[2,1-f][1,2,4]triazin-2-yl)amino)bicyclo[1.1.1]pentan-1-yl)acetamide]"
12,4.8,"COc1nc(N[C@H]2C[C@](C)(C(=O)N(C)C)C2)nn2ccc(-c3ccc4nccnc4c3)c12 [Compound 339, trans-3-((4-Methoxy-5-(quinoxalin-6-yl)pyrrolo[2,1-f][1,2,4]triazin-2-yl)amino)-N,N,1-trimethylcyclobutane-1-carboxamide]"
13,4.3,"COc1nc(N[C@@H]2COC[C@H]2O)nn2ccc(-c3ccc4nccnc4c3)c12 [Compound 1093, (3S,4R)-4-((4-Methoxy-5-(quinoxalin-6-yl)pyrrolo[2,1-f][1,2,4]triazin-2-yl)amino)tetrahydrofuran-3-ol]"
14,2.7,"COc1nc(N[C@H]2CCN(CCO)C[C@H]2F)nn2ccc(-c3cc(F)c4nc(C)n(CC(F)F)c4c3)c12 [Compound 519, 2-((3R,4S)-4-((5-(1-(2,2-Difluoroethyl)-4-fluoro-2-methyl-1H-benzo[d]imidazol-6-yl)-4-methoxypyrrolo[2,1-f][1,2,4]triazin-2-yl)amino)-3-fluoropiperidin-1-yl)ethan-1-ol]"
15,5.2,"COc1nc(NC2CC3(COC3)C2)nn2ccc(-c3ccc4nccn4c3)c12 [Compound 74, 5-(Imidazo[1,2-a]pyridin-6-yl)-4-methoxy-N-(2-oxaspiro[3.3]heptan-6-yl)pyrrolo[2,1-f][1,2,4]triazin-2-amine]"
16,2.3,"COc1nc(N[C@H]2CCN(C3COC3)C[C@H]2F)nn2ccc(-c3cc(F)c4nc(C)n(C(C)C)c4c3)c12 [Compound 1142, N-((3R,4S)-3-Fluoro-1-(oxetan-3-yl)piperidin-4-yl)-5-(4-fluoro-1-isopropyl-2-methyl-1H-benzo[d]imidazol-6-yl)-4-methoxypyrrolo[2,1-f][1,2,4]triazin-2-amine]"
17,0.5,"COc1nc(N[C@H]2CCN(C(=O)C3(C#N)CC3)C[C@H]2F)nn2ccc(-c3ccc4nnn(CC(F)F)c4c3)c12 [Compound 776, 1-((3R,4S)-4-((5-(1-(2,2-Difluoroethyl)-1H-benzo[d][1,2,3]triazol-6-yl)-4-methoxypyrrolo[2,1-f][1,2,4]triazin-2-yl)amino)-3-fluoropiperidine-1-carbonyl)cyclopropane-1-carbonitrile]"
18,8.8,"CNC(=O)[C@]1(C)C[C@H](Nc2nc(OC)c3c(-c4ccc5nnn(C)c5c4)ccn3n2)C1 [Compound 209, cis-3-((4-Methoxy-5-(1-methyl-1H-benzo[d][1,2,3]triazol-6-yl)pyrrolo[2,1-f][1,2,4]triazin-2-yl)amino)-N,1-dimethylcyclobutane-1-carboxamide]"
19,1.4,"COc1nc(N[C@@H]2CCN(C(C)=O)CC2(F)F)nn2ccc(-c3ccc4nnn(CC(F)(F)F)c4c3)c12 [Compound 921, (R)-1-(3,3-Difluoro-4-((4-methoxy-5-(1-(2,2,2-trifluoroethyl)-1H-benzo[d]1[1,2,3]triazol-6-yl)pyrrolo[2,1-f][1,2,4]triazin-2-yl)amino)piperidin-1-yl)ethan-1-one]"
20,1.5,"COc1nc(N[C@@H]2CCN(C(C)=O)C[C@@H]2F)nn2ccc(-c3ccc4nnn(CC(F)F)c4c3)c12 [Compound 770, 1-((3S,4R)-4-((5-(1-(2,2-Difluoroethyl)-1H-benzo[d][1,2,3]triazol-6-yl)-4-methoxypyrrolo[2,1-f][1,2,4]triazin-2-yl)amino)-3-fluoropiperidin-1-yl)ethan-1-one]"
